In patent US20190322676A1, “CERAMIDE GALACTOSYLTRANSFERASE INHIBITORS FOR THE TREATMENT OF DISEASE” (BioMarin Pharmaceutical Inc., priority 2016, published 2019):
pIC50: −log10 of the molar value.

Biological target: T1, human CGT (ceramide galactosyltransferase), CHO/CGT lysate (Homo sapiens, UniProt Q16880)
T1 construct: Full-length human CGT cDNA was cloned into the BamH1/Xho1 site of pcDNA3.1 (+); expressed in transfected cells; host or cells: Chinese hamster ovary (CHO) cells; lysate prepared with M-PER
T1 sequence (Q16880 21-541): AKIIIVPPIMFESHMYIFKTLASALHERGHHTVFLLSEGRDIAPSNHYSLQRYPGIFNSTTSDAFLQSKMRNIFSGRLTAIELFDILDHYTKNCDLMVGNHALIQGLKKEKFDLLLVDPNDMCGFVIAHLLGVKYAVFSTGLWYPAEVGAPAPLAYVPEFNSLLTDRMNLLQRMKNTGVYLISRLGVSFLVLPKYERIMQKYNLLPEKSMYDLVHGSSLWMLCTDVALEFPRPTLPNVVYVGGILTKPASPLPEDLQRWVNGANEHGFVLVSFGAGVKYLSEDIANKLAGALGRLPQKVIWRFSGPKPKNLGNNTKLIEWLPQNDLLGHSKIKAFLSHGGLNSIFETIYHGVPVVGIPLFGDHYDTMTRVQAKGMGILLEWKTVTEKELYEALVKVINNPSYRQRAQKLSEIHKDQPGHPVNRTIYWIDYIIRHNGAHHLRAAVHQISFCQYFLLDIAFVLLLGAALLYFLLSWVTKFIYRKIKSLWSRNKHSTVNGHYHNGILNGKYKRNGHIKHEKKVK
Assay: CGT enzyme assay, RapidFire/MS/MS readout (Table 1 ranges with one asterisk *)
Format: biochemical
Conditions: RapidFire method (range with one asterisk *)
Method in brief: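 IC50s come from variable-slope dose-response fits of internal-standard-normalized C6-NBD-dihydro-galactosylceramide, measured by RapidFire/MS/MS (ESI negative). Reactions: 1 h, 37 °C, human CGT-expressing CHO lysate (4 μg), 0.001–50 μM compound, 10 μM NBD-dihydro-ceramide, 17.5 μM UDP-galactose, 0.5% DMSO, pH 7.2; 0.01% Tween 80 added for ** values.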

SMILES | pIC50
NC1CC2CCC(C1)N2C(=O)[C@H](NS(=O)(=O)c1ccc2c(cnn2CC2CCCC2)c1)C(F)(F)c1ccc(C(F)(F)F)cc1 (stereo partly drawn) [Compound 92-2, N-((2S)-3-(3-amino-8-azabicyclo[3.2.1]octan-8-yl)-1,1-difluoro-3-oxo-1-(4-(trifluoromethyl)phenyl)propan-2-yl)-1-(cyclopentylmethyl)-1H-indazole-5-sulfonamide] | 4.52 to 5.00
NC1CCN(C(=O)[C@@H](NS(=O)(=O)c2ccc3c(cnn3CC3CCCC3)c2)C(F)(F)c2ccc(C(F)(F)F)cc2)CC1 [Compound 93-1, (R)—N-(3-(4-aminopiperidin-1-yl)-1,1-difluoro-3-oxo-1-(4-(trifluoromethyl)phenyl)propan-2-yl)-1-(cyclopentylmethyl)-1H-indazole-5-sulfonamide] | 5.00 to 6.00
NC1CCN(C(=O)[C@H](NS(=O)(=O)c2ccc3c(cnn3CC3CCCC3)c2)C(F)(F)c2ccc(C(F)(F)F)cc2)CC1 [Compound 93-2, (S)—N-(3-(4-aminopiperidin-1-yl)-1,1-difluoro-3-oxo-1-(4-(trifluoromethyl)phenyl)propan-2-yl)-1-(cyclopentylmethyl)-1H-indazole-5-sulfonamide] | 4.00 to 4.52
NC1CC2CCC(C1)N2C(=O)[C@@H](NS(=O)(=O)c1ccc2c(cnn2CC2CCCC2)c1)C(F)(F)c1ccc(-c2ccc(Cl)cc2)cc1 (stereo partly drawn) [Compound 94-1, N-((2R)-3-(3-amino-8-azabicyclo[3.2.1]octan-8-yl)-1-(4′-chloro-[1,1′-biphenyl]-4-yl)-1,1-difluoro-3-oxopropan-2-yl)-1-(cyclopentylmethyl)-1H-indazole-5-sulfonamide] | 5.00 to 6.00
NC1CC2CCC(C1)N2C(=O)[C@H](NS(=O)(=O)c1ccc2c(cnn2CC2CCCC2)c1)C(F)(F)c1ccc(-c2ccc(Cl)cc2)cc1 (stereo partly drawn) [Compound 94-2, N-((2S)-3-(3-amino-8-azabicyclo[3.2.1]octan-8-yl)-1-(4′-chloro-[1,1′-biphenyl]-4-yl)-1,1-difluoro-3-oxopropan-2-yl)-1-(cyclopentylmethyl)-1H-indazole-5-sulfonamide] | 4.52 to 5.00
NC1CCN(C(=O)[C@@H](NS(=O)(=O)c2ccc3cc(OC4CCCC4)ccc3c2)C(F)(F)c2ccc(OC3CCCCC3)cc2)CC1 [Compound 97-1, (R)—N-(3-(4-aminopiperidin-1-yl)-1-(4-(cyclohexyloxy)phenyl)-1,1-difluoro-3-oxopropan-2-yl)-6-(cyclopentyloxy)naphthalene-2-sulfonamide] | 5.00 to 6.00

The next lines start with the values.

pIC50 | SMILES
> 6.00 | NC1CCN(C(=O)[C@@H](NS(=O)(=O)c2ccc3c(cnn3CC3CCCC3)c2)C(F)(F)c2ccc(-c3ccc(Cl)cc3)cc2)CC1 [Compound 95-1, (R)—N-(3-(4-aminopiperidin-1-yl)-1-(4′-chloro-[1,1′-biphenyl]-4-yl)-1,1-difluoro-3-oxopropan-2-yl)-1-(cyclopentylmethyl)-1H-indazole-5-sulfonamide]
4.52 to 5.00 | NC1CCN(C(=O)[C@H](NS(=O)(=O)c2ccc3c(cnn3CC3CCCC3)c2)C(F)(F)c2ccc(-c3ccc(Cl)cc3)cc2)CC1 [Compound 95-2, (S)—N-(3-(4-aminopiperidin-1-yl)-1-(4′-chloro-[1,1′-biphenyl]-4-yl)-1,1-difluoro-3-oxopropan-2-yl)-1-(cyclopentylmethyl)-1H-indazole-5-sulfonamide]
5.00 to 6.00 | NC1CCN(C(=O)[C@H](NS(=O)(=O)c2ccc3cc(OC4CCCC4)ccc3c2)C(F)(F)c2ccc(OC3CCCCC3)cc2)CC1 [Compound 97-2, (S)—N-(3-(4-aminopiperidin-1-yl)-1-(4-(cyclohexyloxy)phenyl)-1,1-difluoro-3-oxopropan-2-yl)-6-(cyclopentyloxy)naphthalene-2-sulfonamide]
5.00 to 6.00 | NC1CCN(C(=O)[C@@H](NS(=O)(=O)c2ccc3cc(OC4CCCC4)ccc3c2)C(F)(F)c2ccc(Cl)cc2)CC1 [Compound 98-1, (R)—N-(3-(4-aminopiperidin-1-yl)-1-(4-chlorophenyl)-1,1-difluoro-3-oxopropan-2-yl)-6-(cyclopentyloxy)naphthalene-2-sulfonamide]
